The text below walks through data of ChEMBL document CHEMBL2331330, “Substituted piperidinyl glycinyl 2-cyano-4,5-methano pyrrolidines as potent and stable dipeptidyl peptidase IV inhibitors” (Bioorg Med Chem Lett, 2013).

The target in one series is Dipeptidyl peptidase 4 (Homo sapiens, UniProt P27487). The series is described as follows: Inhibition of human DPP4 using gly-pro-para-nitroanilide as substrate.
Series [1] in a line: Degradation half life of the compound at 30 mM at pH 7.2. The series is classed as physicochemical. The conditions noted are these: buffer.
The nature of series [2]: Degradation half life of the compound at 10 mM at pH 7.2. The series is classed as physicochemical. The note with it: buffer.
Series [3] is described as follows: Degradation half life of the compound at 50 mM at pH 7.2. Format: physicochemical. The conditions noted are these: buffer.

One may read the Ki as the equilibrium dissociation constant of an inhibitor or competing ligand from its target. A high value points to a looser hold on the target. For orientation: half-life means the time needed for the level to fall by half in the phase considered. High values mean slow decline, low ones rapid decline.

Sequence of Dipeptidyl peptidase 4 (P27487 whole entry): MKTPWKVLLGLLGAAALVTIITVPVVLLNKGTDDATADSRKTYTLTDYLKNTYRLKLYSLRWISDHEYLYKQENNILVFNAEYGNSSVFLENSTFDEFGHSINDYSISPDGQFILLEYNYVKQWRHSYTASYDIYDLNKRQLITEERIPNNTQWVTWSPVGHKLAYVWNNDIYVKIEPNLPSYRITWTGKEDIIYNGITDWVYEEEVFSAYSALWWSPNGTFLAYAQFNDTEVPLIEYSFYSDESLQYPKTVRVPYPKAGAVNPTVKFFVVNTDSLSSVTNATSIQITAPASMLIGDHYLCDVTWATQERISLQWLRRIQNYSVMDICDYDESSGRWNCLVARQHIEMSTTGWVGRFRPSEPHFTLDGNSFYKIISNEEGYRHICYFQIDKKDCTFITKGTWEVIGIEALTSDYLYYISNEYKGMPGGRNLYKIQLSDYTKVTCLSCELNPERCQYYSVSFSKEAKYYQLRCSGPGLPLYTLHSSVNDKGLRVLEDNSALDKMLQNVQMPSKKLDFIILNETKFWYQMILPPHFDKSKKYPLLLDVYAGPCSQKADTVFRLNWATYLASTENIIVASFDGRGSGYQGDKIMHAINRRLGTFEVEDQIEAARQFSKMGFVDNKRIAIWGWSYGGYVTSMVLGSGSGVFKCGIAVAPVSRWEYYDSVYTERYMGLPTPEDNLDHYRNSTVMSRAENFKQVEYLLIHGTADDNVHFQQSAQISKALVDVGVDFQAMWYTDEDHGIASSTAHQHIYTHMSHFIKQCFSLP

Compound `N#C[C@@H]1C[C@@H]2C[C@@H]2N1C(=O)[C@@H](N)C1CCN(C(=O)Cc2ccccc2)CC1` displayed a Ki on Dipeptidyl peptidase 4 of 18 nM.

`CC(C)(C)CC(=O)N1CCC([C@H](N)C(=O)N2[C@H](C#N)C[C@@H]3C[C@@H]32)CC1` gave a half-life at 30000 µM in series [1] of 38.4 h. Besides, in series [2], the half-life at 10000 µM is 48 h. For the same compound, in series [3], the half-life at 50000 µM is 38.4 h.

`CCC1([C@H](N)C(=O)N2[C@H](C#N)C[C@@H]3C[C@@H]32)CCN(C(=O)CC(C)(C)C)CC1`: in series [1], the half-life at 30000 µM was 245 h. This compound also gave a half-life at 10000 µM in series [2] of 473 h. In series [3], this compound gave a half-life at 50000 µM of 192 h.

Consider `N#C[C@@H]1C[C@@H]2C[C@@H]2N1C(=O)[C@@H](N)C1CCN(S(=O)(=O)c2cccc3ccccc23)CC1`, for which the Ki on Dipeptidyl peptidase 4 was determined as 13 nM.
